# Measurements published in article PMC11413854, “Reversible Control of Native GluN2B-Containing NMDA Receptors with Visible Light” (ACS Chemical Neuroscience, 2024).
# Where “and” joins values, the source holds several entries; their conditions need not be identical. Equal entries are not always repeated. Where two headings read alike, the source gives them in different places.
# Biological target: T1, GluN1/GluN2B NMDA receptors (UniProt P35439+Q01097)
# T1 construct: expressed in transfected cells; host or cells: Xenopus laevis oocytes (nuclear cDNA injection)
# Test: TEVC electrophysiology on Xenopus oocytes expressing wt GluN1/GluN2B NMDARs
# Format: cell-based, rat GluN1, mouse GluN2B
# Conditions: for inhibition of GluN1/GluN2B wt: 1 µM trans-OptoNAM-3 (dark); for IC50: 100 µM glutamate + glycine, Xenopus oocytes; for remaining activity at 1 µM: [OptoNAM-3] 1 µM; for remaining activity at 3 µM: [OptoNAM-3] 3 µM; for remaining activity at 5 µM: [OptoNAM-3] 5 µM; for remaining activity at 0.025 µM: [OptoNAM-3] 0.025 µM; for remaining activity at 0.05 µM: [OptoNAM-3] 0.05 µM; for remaining activity at 0.22 µM: [OptoNAM-3] 0.22 µM; for remaining activity at 30 µM: [OptoNAM-3] 30 µM; for Relative current for theoretical DRC 9% trans: theoretical for 350 nm PSS
# Description: The activity of OptoNAM-3 was functionally monitored by electrophysiology on Xenopus oocytes (see Methods). To assess the light-dependent effect, we tested the activities of the dark PSS (mostly trans) and the UV PSS (mostly cis, see above) separately. For each concentration, we prepared a solution divided into two samples: one in which the compound was kept in the dark for the duration of the experiment (dark PSS state); and the other that was preilluminated with either 350 or 365 nm light (350 or 365 nm PSS) and then kept away from the light for the duration of the experiment in order to avoid photoisomerization of the compounds by ambient light (see Methods). […] We generated dose–response curves of OptoNAM-3 dark and UV PSS on wild-type (wt) GluN1/GluN2B NMDA receptors (Figure 3A) in the presence of saturating concentrations of agonists (100 μM glutamate and glycine).
# We used cDNA coding for rat GluN1–1a (named GluN1 herein) (GenBank: U08261.1), rat GluN2A (GenBank: D13211.1), mouse GluN2B (GenBank: D10651.2), rat GluA1 flop (GenBank: M36418.2), and rat Myc-GluA2(Q)-flip (GenBank: AF164344.1) cloned into pcDNA3-based expression plasmids. GluK2 (GenBank: Z11548.1) corresponds to the fully RNA-edited version.[80] The GluN2B-ΔNTD construct is from ref[45] and GluN2B–N615K is from ref[81]. Single mutants GluN2B-Q110G and GluN1-L135H were from ref[19]. The GluA2 cDNA contains a Myc tag ([…]) fused between the signal peptide and the N-terminus sequences, and the GluA2 subunit is […] for its Q/R/N site (GluA2(Q)) to allow permeation of homomeric GluA2 receptors.[2] cDNAs coding for rat GluN2C (GenBank: M91563.1) and GluN2D subunits (GenBank: L31611.1) were in prK5 plasmids.
# Oocytes from Xenopus laevis were used for heterologous expression of recombinant NMDA receptors studied using a two-electrode voltage clamp (TEVC). Female Xenopus laevis were housed and ovary bags harvested according to the European Union guidelines (husbandry authorizations #C75–05–31 and #D75–05–31; project authorizations #05137.02; and Apafis #28867–2020121814485893). Fragments of ovary bags were also purchased from the “Centre de Ressources Biologiques Xenopes” (now TEFOR, Paris Saclay, France) and from the European Xenopus Resource Center (EXRC, Portsmouth, UK). Xenopus laevis oocytes were harvested and prepared as previously described in ref[82].
# Expression of recombinant NMDA receptors was obtained by oocyte nuclear coinjection of 37 nL of a mixture of cDNAs (at 30 ng/μL) coding for GluN1–1a and various GluN2 subunits (ratio 1:1). The protocol in ref[43] was followed for the expression of GluN1/GluN2A/GluN2B triheteromers. The oocytes were transferred in 96-well plates filled with Barth solution (in mM: 88 NaCl, 1 KCl, 0.33 Ca(NO3)2, 0.41 CaCl2, 0.82 MgSO4, 2.4 NaHCO3, and 7.5 HEPES, pH adjusted to 7.3 with NaOH), supplemented with gentamicin ([…]) and 50 μM APV, a selective NMDA receptor antagonist. Plates were then stored at 18 °C for 24 h for GluN1/GluN2A expression and for 48––72 h for the expression of GluN1/Glu2B, GluN1/GluN2A/GluN2B, and mutants.
# TEVC recordings were performed 1–3 days following injection. TEVC recordings were performed using an Oocyte Clamp amplifier OC-725 (Warner Instruments) and computer-controlled via a 1440A Digidata (Molecular Devices). Currents were sampled at 100 Hz and low-pass-filtered at 20 Hz using an 8-pole Bessel filter (900 Series, Frequency Devices Inc.).
# [1] = GluN1/GluN2B wt, OptoNAM-3 350 nm PSS, read-out: Relative current (IOpto/I0)
# [2] = GluN1/GluN2B wt, OptoNAM-3 365 nm PSS, read-out: Relative current (IOpto/I0)
# [3] = GluN1/GluN2B wt, OptoNAM-3 dark PSS (trans), read-out: Relative current (IOpto/I0)
# T1 sequence (Q01097 27-1482, other chains not shown): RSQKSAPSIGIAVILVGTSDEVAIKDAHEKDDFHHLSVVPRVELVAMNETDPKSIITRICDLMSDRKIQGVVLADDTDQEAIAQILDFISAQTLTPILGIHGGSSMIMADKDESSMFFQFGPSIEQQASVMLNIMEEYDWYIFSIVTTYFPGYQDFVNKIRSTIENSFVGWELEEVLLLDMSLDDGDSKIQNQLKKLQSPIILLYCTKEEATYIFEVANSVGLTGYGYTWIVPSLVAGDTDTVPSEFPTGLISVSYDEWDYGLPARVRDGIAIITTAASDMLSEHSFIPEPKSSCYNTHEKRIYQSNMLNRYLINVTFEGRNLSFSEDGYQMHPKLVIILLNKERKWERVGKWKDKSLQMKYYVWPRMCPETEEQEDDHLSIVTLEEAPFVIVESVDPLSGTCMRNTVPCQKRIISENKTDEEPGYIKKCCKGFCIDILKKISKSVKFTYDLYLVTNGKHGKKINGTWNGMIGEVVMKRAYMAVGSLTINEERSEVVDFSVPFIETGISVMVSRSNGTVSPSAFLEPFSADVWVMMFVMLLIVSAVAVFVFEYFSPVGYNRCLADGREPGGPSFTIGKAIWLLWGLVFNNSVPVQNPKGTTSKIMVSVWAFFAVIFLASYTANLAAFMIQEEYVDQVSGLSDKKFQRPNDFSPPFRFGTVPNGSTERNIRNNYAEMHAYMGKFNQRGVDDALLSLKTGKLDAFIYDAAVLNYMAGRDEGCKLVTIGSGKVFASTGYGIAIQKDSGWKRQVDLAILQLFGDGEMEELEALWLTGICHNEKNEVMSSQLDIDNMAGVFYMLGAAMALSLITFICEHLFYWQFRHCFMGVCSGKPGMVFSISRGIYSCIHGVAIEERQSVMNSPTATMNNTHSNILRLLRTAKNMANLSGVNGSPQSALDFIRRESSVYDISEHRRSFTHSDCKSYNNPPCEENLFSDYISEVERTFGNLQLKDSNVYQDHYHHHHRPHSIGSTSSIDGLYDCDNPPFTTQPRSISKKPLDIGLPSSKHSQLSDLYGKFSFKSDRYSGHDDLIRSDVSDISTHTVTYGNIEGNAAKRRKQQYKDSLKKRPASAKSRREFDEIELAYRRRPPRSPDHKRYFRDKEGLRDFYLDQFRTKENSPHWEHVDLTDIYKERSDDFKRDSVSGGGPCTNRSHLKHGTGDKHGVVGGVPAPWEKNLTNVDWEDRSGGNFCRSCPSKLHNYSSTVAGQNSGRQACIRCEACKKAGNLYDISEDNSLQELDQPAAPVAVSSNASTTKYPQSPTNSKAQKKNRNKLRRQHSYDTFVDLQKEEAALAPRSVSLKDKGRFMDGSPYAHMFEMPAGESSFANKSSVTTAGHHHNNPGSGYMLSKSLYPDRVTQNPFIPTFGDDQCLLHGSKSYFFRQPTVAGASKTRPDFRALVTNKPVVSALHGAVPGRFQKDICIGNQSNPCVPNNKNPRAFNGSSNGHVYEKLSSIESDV
compound,measurement,setting,value
"c1ccc(/N=N/c2ccc(CCNc3ccncc3)cc2)cc1 [OptoNAM-3, (E)-N-(4-(Phenyldiazenyl)phenethyl)pyridin-4-amine]",Relative current for theoretical 100% cis,"0.025 µM, calculated from the 365 nm PSS curve",0.953
same,Relative current for theoretical 100% cis,"0.050 µM, calculated from the 365 nm PSS curve",0.945
same,Relative current for theoretical 100% cis,"0.125 µM, calculated from the 350 nm PSS curve",0.949
same,Relative current for theoretical 100% cis,"0.125 µM, calculated from the 365 nm PSS curve",0.988
same,Relative current for theoretical 100% cis,"0.220 µM, calculated from the 365 nm PSS curve",1.000
same,Relative current for theoretical 100% cis,"0.300 µM, calculated from the 350 nm PSS curve",1.005
same,Relative current for theoretical 100% cis,"0.300 µM, calculated from the 365 nm PSS curve",0.993
same,Relative current for theoretical 100% cis,"0.470 µM, calculated from the 350 nm PSS curve",1.025
same,Relative current for theoretical 100% cis,"0.500 µM, calculated from the 365 nm PSS curve",0.891
same,inhibition of GluN1/GluN2B wt,,69.305%
same,inhibition of GluN1/GluN2B wt,listed as trans-OptoNAM-3,69% ± 2%
same,Relative current for theoretical 100% cis,"1.000 µM, calculated from the 350 nm PSS curve",1.085
same,Relative current for theoretical 100% cis,"1.000 µM, calculated from the 365 nm PSS curve",0.988
same,Relative current for theoretical 100% cis,"2.000 µM, calculated from the 350 nm PSS curve",1.000
same,Relative current for theoretical 100% cis,"2.000 µM, calculated from the 365 nm PSS curve",0.933
same,Relative current for theoretical 100% cis,"3.000 µM, calculated from the 350 nm PSS curve",1.043
same,Relative current for theoretical 100% cis,"3.000 µM, calculated from the 365 nm PSS curve",0.959
same,Relative current for theoretical 100% cis,"5.000 µM, calculated from the 350 nm PSS curve",0.994
same,Relative current for theoretical 100% cis,"5.000 µM, calculated from the 365 nm PSS curve",0.960
same,inhibition at 10 µM,"10 µM OptoNAM-3 365 nm PSS, construct GluN1/GluN2B, read-out: Inhibition (%)",68%
same,"Inhibition, individual values","10 µM OptoNAM-3 dark PSS (trans) as headed, GluN1/GluN2B, single cells, second block",0.6438 and 0.6778 and 0.6833 and 0.7763
same,inhibition at 10 µM,"10 µM OptoNAM-3 dark PSS (trans) as headed, GluN1/GluN2B, single cells, second block, read-out: Inhibition, individual values",63.8%
same,"Inhibition, individual values","10 µM OptoNAM-3 dark PSS (trans), GluN1/GluN2B, single cells, first block",0.9137 and 0.9546 and 0.9747
same,inhibition at 10 µM,"10 µM OptoNAM-3 dark PSS (trans), GluN1/GluN2B, single cells, first block, read-out: Inhibition, individual values",92.7%
same,inhibition at 10 µM,"10 µM OptoNAM-3 dark PSS (trans), construct GluN1/GluN2B, read-out: Inhibition (%)",94%
same,Relative current for theoretical 100% cis,"30.000 µM, calculated from the 365 nm PSS curve",0.961
same,IC50,"350 nm PSS, read-out: IC50 on GluN1/GluN2B receptors, preilluminated with 350 nm",4.4 µM and 4.38 µM
same,IC50,"365 nm PSS, read-out: IC50 on GluN1/GluN2B receptors, preilluminated with 365 nm",1.7 µM
same,remaining activity at 0.125 µM,"GluN1/GluN2B wt, OptoNAM-3 350 nm PSS, [OptoNAM-3] 0.125 µM, read-out: Relative current (IOpto/I0)",90.7%
same,remaining activity at 0.3 µM,"GluN1/GluN2B wt, OptoNAM-3 350 nm PSS, [OptoNAM-3] 0.3 µM, read-out: Relative current (IOpto/I0)",91.8%
same,remaining activity at 0.47 µM,"GluN1/GluN2B wt, OptoNAM-3 350 nm PSS, [OptoNAM-3] 0.47 µM, read-out: Relative current (IOpto/I0)",90%
same,remaining activity at 1 µM,[1],86%
same,remaining activity at 2 µM,"GluN1/GluN2B wt, OptoNAM-3 350 nm PSS, [OptoNAM-3] 2 µM, read-out: Relative current (IOpto/I0)",65.6%
same,remaining activity at 3 µM,[1],61.3%
same,remaining activity at 5 µM,[1],44.6%
same,remaining activity at 0.025 µM,[2],93.3%
same,remaining activity at 0.05 µM,[2],91%
same,remaining activity at 0.125 µM,"GluN1/GluN2B wt, OptoNAM-3 365 nm PSS, [OptoNAM-3] 0.125 µM, read-out: Relative current (IOpto/I0)",91.2%
same,remaining activity at 0.22 µM,[2],88%
same,remaining activity at 0.3 µM,"GluN1/GluN2B wt, OptoNAM-3 365 nm PSS, [OptoNAM-3] 0.3 µM, read-out: Relative current (IOpto/I0)",84.1%
same,remaining activity at 0.5 µM,"GluN1/GluN2B wt, OptoNAM-3 365 nm PSS, [OptoNAM-3] 0.5 µM, read-out: Relative current (IOpto/I0)",66.6%
same,remaining activity at 1 µM,[2],64.4%
same,remaining activity at 2 µM,"GluN1/GluN2B wt, OptoNAM-3 365 nm PSS, [OptoNAM-3] 2 µM, read-out: Relative current (IOpto/I0)",43.3%
same,remaining activity at 3 µM,[2],37.5%
same,remaining activity at 5 µM,[2],26.7%
same,remaining activity at 30 µM,[2],3.4%
same,remaining activity at 0.025 µM,[3],88.7%
same,remaining activity at 0.05 µM,[3],82.7%
same,remaining activity at 0.125 µM,"GluN1/GluN2B wt, OptoNAM-3 dark PSS (trans), [OptoNAM-3] 0.125 µM, read-out: Relative current (IOpto/I0)",75.8%
same,remaining activity at 0.22 µM,[3],59.2%
same,remaining activity at 0.3 µM,"GluN1/GluN2B wt, OptoNAM-3 dark PSS (trans), [OptoNAM-3] 0.3 µM (Sup. Fig. 3A/B/E), read-out: Relative current (IOpto/I0)",58.1%
same,remaining activity at 1 µM,[3],30.7%
same,remaining activity at 2 µM,"GluN1/GluN2B wt, OptoNAM-3 dark PSS (trans), [OptoNAM-3] 2 µM (Sup. Fig. 3A/B/E), read-out: Relative current (IOpto/I0)",14.1%
same,remaining activity at 3 µM,[3],9.8%
same,remaining activity at 5 µM,[3],9.2%
same,remaining activity at 30 µM,[3],0.423%
same,Relative current for theoretical DRC 9% trans,"GluN1/GluN2B wt, [OptoNAM-3] 0.125 µM",0.958
same,Relative current for theoretical DRC 9% trans,"GluN1/GluN2B wt, [OptoNAM-3] 0.3 µM",0.913
same,Relative current for theoretical DRC 9% trans,"GluN1/GluN2B wt, [OptoNAM-3] 0.47 µM",0.875
